ChEMBL document CHEMBL1132772, “NMR line-broadening and transferred NOESY as a medicinal chemistry tool for studying inhibitors of the hepatitis C virus NS3 protease domain” (Bioorg Med Chem Lett, 2000)
Starred links: 1 amine or outer side, 2 acyl side, 3 side chain; linkers in the order of their positions; H or OH if unused. Non-standard residues stand in square brackets, D forms with d. Residues, ends and D or L forms follow the SMILES beside them. *: point of attachment. CH2(1-naphthyl) = c1ccc2c(C*)cccc2c1; Hyp = O=C(O)[C@@H]1C[C@@H](O)CN1; Suc = O=C(CCC(=O)[*:2])[*:1]; Nva = CCC[C@H](N)C(=O)O; Ac3c = NC1(C(=O)O)CC1

Molecular target: NS3 (Hepatitis C virus, UniProt A3EZJ3)
Assay: Inhibitory concentration required against NS3 Protease of Hepatitis C Virus
Set-up: species or system Hepacivirus hominis

Sequence of NS3 (A3EZJ3 whole entry): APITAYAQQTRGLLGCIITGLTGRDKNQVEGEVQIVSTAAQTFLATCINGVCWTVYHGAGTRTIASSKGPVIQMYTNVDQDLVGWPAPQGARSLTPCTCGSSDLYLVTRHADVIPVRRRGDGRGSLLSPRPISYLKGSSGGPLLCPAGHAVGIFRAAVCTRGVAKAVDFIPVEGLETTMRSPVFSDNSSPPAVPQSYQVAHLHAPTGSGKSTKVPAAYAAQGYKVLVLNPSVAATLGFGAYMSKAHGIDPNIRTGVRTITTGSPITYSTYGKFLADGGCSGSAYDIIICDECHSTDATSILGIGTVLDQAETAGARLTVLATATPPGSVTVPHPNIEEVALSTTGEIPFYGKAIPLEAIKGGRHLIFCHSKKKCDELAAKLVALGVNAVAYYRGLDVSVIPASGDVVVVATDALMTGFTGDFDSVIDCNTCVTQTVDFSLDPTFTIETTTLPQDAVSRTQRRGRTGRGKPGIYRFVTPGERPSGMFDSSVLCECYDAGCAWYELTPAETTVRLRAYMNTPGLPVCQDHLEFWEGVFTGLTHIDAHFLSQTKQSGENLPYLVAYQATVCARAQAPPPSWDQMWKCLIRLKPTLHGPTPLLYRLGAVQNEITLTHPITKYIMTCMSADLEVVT

| IC50 [µM] | SMILES |
| --- | --- |
| 5.5 | CC[C@H](C)[C@H](NC(=O)CCC(=O)O)C(=O)N[C@H](C(=O)N1C[C@H](OCc2cccc3ccccc23)C[C@H]1C(=O)NC1(C(=O)O)CC1)C(C)C (Suc-IV[Hyp](CH2(1-naphthyl))[Ac3c]-OH) |
| 22 | CCC[C@H](NC(=O)[C@@H]1C[C@@H](OCc2cccc3ccccc23)CN1C(=O)[C@@H](NC(=O)[C@@H](NC(=O)CCC(=O)O)[C@@H](C)CC)C(C)C)C(=O)O (Suc-IV[Hyp](CH2(1-naphthyl))[Nva]-OH) |
